Converted amounts (≈) assume the structure as drawn. Like-named read-outs stand apart in the source and are kept apart here.
Experiments:
[1] = system: HL-60 cells (human acute promyelocytic leukemia cell line); assay: Growth-inhibiting activity against animal cells (WST-8), HL-60; format: cell-based; conditions: for IC50: Homo sapiens, read-out: HL60 IC50
Experimental: (§1) HL-60 cells (human acute promyelocytic leukemia cell line) and K562 cells (human chronic myeloid leukemia cell line) were maintained in a culture medium in which RPMI1640 medium (manufactured by Invitrogen) was added with 10% fetal bovine serum (manufactured by Nichirei), 0.5% penicillin/streptomycin solution (manufactured by Invitrogen) at 37° C. under a humidified culture of 5% CO2. tsFT210 cells (mouse breast cancer cells CDC2 temperature sensitive strain) were maintained in a culture medium in which RPMI1640 medium (manufactured by Invitrogen) was added with 5% calf serum (manufactured by Hyclone) and 0.5% penicillin/streptomycin solution at 32° C. under a humidified culture of 5% CO2.
(§2) HL-60 cells and K562 cells were seeded in a 96-well plate (manufactured by IWAKI) so as to be 1.5×10^4 cells/well/100 μl. tsFT210 cells were seeded in a 96-well plate so as to be 1.6×10^4 cell/well/100 μl. Each of the agents in Table 5 was added at 0.5% (v/v). HL-60 cells and K562 cells were maintained at 37° C. under a humidified culture of 5% CO2 and tsFT210 cells were maintain at 32° C. under a humidified culture of 5% CO2. Forty eight hours after addition of the agent, 10 μl of a reagent SF solution for counting live cells (WST-8 reagent, manufactured by Nakarai tesque) was added to each well. HL-60 cells and K562 cells were maintained at 37° C. under a humidified culture of 5% CO2 for 30 minutes and tsFT210 cells were maintain at 32° C. under a humidified culture of 5% CO2 for one hour. After the reaction, absorbance at 450 nm was measured using a microplate reader (manufactured by PerkinElmer) and a cell proliferation rate was determined from the measurement value.

[2] = system: K562 cells (human chronic myeloid leukemia cell line); assay: Growth-inhibiting activity against animal cells (WST-8), K562; format: cell-based
Experimental: as §1, §2

[3] = system: Escherichia coli (HO141 strain); assay: Growth-inhibiting activity against Escherichia coli; format: cell-based; conditions: 6 hours, absorbance at 600 nm, read-out: E. coli IC50
Experimental: Escherichia coli (HO141 strain) was precultured in culture medium of 0.5% Polypeptone, 0.5% Meat Extract, 0.3% NaCl, and 0.001% Sodium Dodecyl Sulfate (SDS) at 37° C. Absorbance at 600 nm was measured, and Escherichia coli solution was prepared such that the absorbance is 0.005 and seeded 100 μl each in a 96-well plate. Each of the agents in Table 5 was added at 0.5% (v/v) and maintained at 37° C. Six hours after addition of the agent, absorbance at 600 nm was measured using a microplate reader (manufactured by PerkinElmer) and a proliferation rate was determined from the measurement value.

[4] = system: Budding yeast (MLC30M strain); assay: Growth-inhibiting activity against yeast; format: cell-based; conditions: Saccharomyces cerevisiae, read-out: Yeast IC50
Experimental: Budding yeast (MLC30M strain) was precultured in a culture medium of 2% Polypeptone, 1% yeast extract, 2% glucose, 0.02% adenine, and 0.001% sodium dodecyl sulfate (SDS) at 30° C. Absorbance at 600 nm was measured, and yeast solution was prepared such that the absorbance is 0.05 and seeded 100 μl each in a 96-well plate. Each of the agents in Table 5 was added at 0.5% (v/v) and maintained at 30° C. Eighteen hours after addition of the agent, absorbance at 600 nm was measured using a microplate reader (manufactured by PerkinElmer) and a proliferation rate was determined from the measurement value.

[5] = target: T1, Isoleucyl tRNA synthetase (Homo sapiens, UniProt P41252); assay: Inhibitory activity against isoleucyl tRNA synthetase; format: biochemical; conditions: HT1080 cell lysate, [3H]isoleucine, 25° C., 20 minutes; read-out: IRS IC50 (converted)
T1 construct: 10 μg protein (HT1080 cell lysate); endogenous in cells; host or cells: HT1080 cell lysate
T1 sequence (P41252 1-1262): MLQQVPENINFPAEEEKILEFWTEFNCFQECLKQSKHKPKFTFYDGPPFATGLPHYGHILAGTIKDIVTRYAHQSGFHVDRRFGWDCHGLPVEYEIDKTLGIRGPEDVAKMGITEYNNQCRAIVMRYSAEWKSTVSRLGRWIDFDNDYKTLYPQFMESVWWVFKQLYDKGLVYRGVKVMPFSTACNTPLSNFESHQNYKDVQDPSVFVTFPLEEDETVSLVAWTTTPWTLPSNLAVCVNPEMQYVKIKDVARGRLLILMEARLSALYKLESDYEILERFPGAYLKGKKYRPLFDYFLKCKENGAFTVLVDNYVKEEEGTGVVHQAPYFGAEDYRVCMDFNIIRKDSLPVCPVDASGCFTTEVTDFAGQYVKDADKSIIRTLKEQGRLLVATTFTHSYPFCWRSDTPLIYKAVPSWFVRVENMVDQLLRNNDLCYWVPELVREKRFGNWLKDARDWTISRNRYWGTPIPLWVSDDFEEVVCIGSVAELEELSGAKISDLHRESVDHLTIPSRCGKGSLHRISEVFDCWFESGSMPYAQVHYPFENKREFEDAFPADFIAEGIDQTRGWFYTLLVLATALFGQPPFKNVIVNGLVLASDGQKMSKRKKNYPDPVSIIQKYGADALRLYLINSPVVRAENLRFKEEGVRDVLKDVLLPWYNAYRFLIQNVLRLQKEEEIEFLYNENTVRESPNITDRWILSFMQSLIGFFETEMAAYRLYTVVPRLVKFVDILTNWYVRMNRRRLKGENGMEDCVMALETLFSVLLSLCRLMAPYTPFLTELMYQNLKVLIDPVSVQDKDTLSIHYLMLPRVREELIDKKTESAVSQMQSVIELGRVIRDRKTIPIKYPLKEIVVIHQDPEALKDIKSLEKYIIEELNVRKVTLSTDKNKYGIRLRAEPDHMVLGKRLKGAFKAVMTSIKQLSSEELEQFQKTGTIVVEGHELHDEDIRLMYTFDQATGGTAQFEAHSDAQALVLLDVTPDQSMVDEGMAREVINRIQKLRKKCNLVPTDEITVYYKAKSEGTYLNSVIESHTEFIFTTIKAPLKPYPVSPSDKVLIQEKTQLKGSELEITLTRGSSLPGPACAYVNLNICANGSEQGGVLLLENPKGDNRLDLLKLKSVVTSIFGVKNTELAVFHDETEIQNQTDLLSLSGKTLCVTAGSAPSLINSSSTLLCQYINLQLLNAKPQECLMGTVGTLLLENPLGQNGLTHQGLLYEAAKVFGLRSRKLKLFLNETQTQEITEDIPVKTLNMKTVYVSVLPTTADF
Experimental: To a solution for enzymatic reaction [20 mM imidazole, pH 7.5, 75 mM MgCl2, 0.5 mM DTT, 1 U/ml tRNA (E. coli origin, manufactured by Sigma), 3 mM ATP, 1 μM isoleucine, 10 μCi/ml [^3H]isoleucine (manufactured by GE Healthcare), 10 μg protein (HT1080 cell lysate)], each of the agents in Table 5 was added at 1% (v/v) so as to attain a total amount of 100 μl and a reaction was carried out at 25° C. for 20 minutes. One mg/ml BSA solution (400 μl) and 10% TCA solution (500 μl) were then added thereto to terminate the reaction and left to stand at 4° C. overnight. A precipitate obtained by a centrifugal operation was transferred onto GF-C filter (manufactured by Whatman), washed three times with 5% TCA solution, followed by drying the filter. Two milliliters of aquasol-2 (manufactured by PerkinElmer) and the filter were placed in a vial and vigorously stirred, and then the amount of [^3H]isoleucine was measured by a liquid scintillation counter (manufactured by Beckman) to determine a rate of enzyme activity.

[6] = system: tsFT210 cells (mouse breast cancer cells CDC2 temperature sensitive strain); assay: Growth-inhibiting activity against animal cells (WST-8), tsFT210; format: cell-based
Experimental: as §1, §2

[7] = K562, 48 h, read-out: K562 IC50
[8] = tsFT210, 48 h, read-out: tsFT210 IC50
[9] = HL-60 cells, 48 hours after addition of the agent, WST-8
[10] = K562 cells, 48 hours after addition of the agent, WST-8, read-out: K562 IC50
[11] = MLC30M strain, 18 hours, absorbance at 600 nm
[12] = tsFT210 cells, 32° C., 48 hours after addition of the agent, WST-8, read-out: tsFT210 IC50

`CCCCC1CCC2(CCC(C)C(C/C=C(C)/C=C/C(O)C(C)/C=C/C(=O)O)O2)OC1/C=C/C(C)=C/CC(O)CC` (stereo not drawn) [RM-A1c] showed an IC50 ([1]; HL-60, 48 h) of 6.3 mg/L (≈ 11 µM), an IC50 [2, 7] of 3.4 mg/L (≈ 5.94 µM) and an IC50 [3] greater than 50 mg/L. The IC50 ([4]; 18 h) was greater than 50 mg/L, the IC50 [5] was 16.8 µM and the IC50 [6, 8] was 6.4 mg/L (≈ 11.2 µM).

`CCCCC(CCC(O)CCC(C)C(O)C/C=C(C)/C=C/C(O)C(C)/C=C/C(=O)O)C(O)C/C=C(C)/C=C/C(=O)CC` (stereo not drawn) [RM-A2b] was tested, and the IC50 [1, 9] was greater than 30 mg/L, the IC50 [2, 10] was greater than 30 mg/L and the IC50 [3] was greater than 50 mg/L. The IC50 [4, 11] was greater than 50 mg/L and the IC50 [6, 12] was greater than 30 mg/L.

`CCCC[C@@]1(OC(=O)CCC(=O)O)CC[C@]2(CC[C@H](C)[C@@H](C/C=C(C)/C=C/[C@H](O)[C@@H](C)/C=C/C(=O)O)O2)O[C@H]1/C=C/C(C)=C/CO` [RM-A9a] gave an IC50 ([1]; HL-60, 48 h) of 21 mg/L (≈ 32.5 µM), an IC50 [2, 7] of 22.3 mg/L (≈ 34.5 µM) and an IC50 [3] greater than 50 mg/L. It also gave an IC50 ([4]; 18 h) of 26.4 mg/L (≈ 40.8 µM) and an IC50 [6, 8] of 24.6 mg/L (≈ 38 µM).

`CC(/C=C/[C@H](O)[C@@H](C)/C=C/C(=O)O)=C\C[C@H]1O[C@]2(CC[C@H](C)[C@H](/C=C/C(C)=C/C(=O)O)O2)CC[C@@H]1C` [SF-B, spirofungin B, reference compound] was tested, and the IC50 [1, 9] was greater than 30 mg/L, the IC50 [2, 10] was greater than 30 mg/L and the IC50 [3] was greater than 50 mg/L. For the same compound, the IC50 [4, 11] was 4 mg/L (≈ 7.96 µM) and the IC50 [6, 12] was greater than 30 mg/L.

With `CCCCC(CCC(O)CCC(C)C(O)C/C=C(C)/C=C/C(O)C(C)/C=C/C(=O)O)C(O)/C=C/C(C)=C/CC(O)CC` (stereo not drawn) [RM-A1a] the IC50 [1, 9] was 20.9 mg/L (≈ 35.3 µM), the IC50 [2, 10] was greater than 30 mg/L and the IC50 [3] was greater than 50 mg/L. The IC50 [4, 11] was greater than 50 mg/L and the IC50 [6, 12] was greater than 30 mg/L.

In the case of `CCCCC1CCC(CCC(C)C(O)C/C=C(C)/C=C/C(O)C(C)/C=C/C(=O)O)OC1/C=C/C(C)=C/CC(O)CC` (stereo not drawn) [RM-A1b], the IC50 [1, 9] is reported as 7.4 mg/L (≈ 12.9 µM), the IC50 [2, 10] is reported as 21.1 mg/L (≈ 36.7 µM) and the IC50 [3] is reported as 31.9 mg/L (≈ 55.5 µM). The IC50 [4, 11] was greater than 50 mg/L and the IC50 [6, 12] was 17.4 mg/L (≈ 30.3 µM).

Compound `CCCCC(CCC(O)CCC(C)C(O)C/C=C(C)/C=C/C(O)C(C)/C=C/C(=O)O)C(O)/C=C/C(C)=C/C(=O)O` (stereo not drawn) [RM-A1e] has an IC50 [1, 9] greater than 30 mg/L, an IC50 [2, 10] greater than 30 mg/L and an IC50 [3] greater than 50 mg/L. The IC50 [4, 11] was 48.2 mg/L (≈ 85.3 µM) and the IC50 [6, 12] was greater than 30 mg/L.

Compound `CCCCC1CCC2(CCC(C)C(C/C=C(C)/C=C/C(O)C(C)/C=C/C(=O)O)O2)OC1/C=C/C(C)=C/CO` (stereo not drawn) [RM-A6a] has an IC50 ([1]; HL-60, 48 h) of 7 mg/L (≈ 13.2 µM), an IC50 [2, 7] of 14.8 mg/L (≈ 27.9 µM) and an IC50 [3] of 24.6 mg/L (≈ 46.3 µM). For the same compound, the IC50 ([4]; 18 h) was 31.5 mg/L (≈ 59.4 µM) and the IC50 [6, 8] was 6.8 mg/L (≈ 12.8 µM).

In the case of `CCCC[C@H]1CC[C@]2(CC[C@H](C)[C@@H](C/C=C(C)/C=C/[C@H](O)[C@@H](C)/C=C/C(=O)OC)O2)O[C@H]1/C=C/C(C)=C/C(=O)O` [RM-T methyl-ester], the IC50 ([1]; HL-60, 48 h) is reported as 0.9 mg/L (≈ 1.61 µM), the “cancer cell growth-inhibiting activity (in words)” value ([1]; summary of Table 5 (HL60, K562, tsFT210), RM-T as compared with RM-A) is reported as “high” and the IC50 [2, 7] is reported as 2.5 mg/L (≈ 4.47 µM). For the same compound, the IC50 [3] was greater than 50 mg/L, the IC50 ([4]; 18 h) was greater than 50 mg/L and the IC50 [6, 8] was 8.2 mg/L (≈ 14.7 µM).

Compound `CC(/C=C/[C@H](O)[C@@H](C)/C=C/C(=O)O)=C\C[C@H]1O[C@@]2(CC[C@H](C)[C@H](/C=C/C(C)=C/C(=O)O)O2)CC[C@@H]1C` [SF-A, spirofungin A, reference compound] has an IC50 [1, 9] of 1.2 mg/L (≈ 2.39 µM), an IC50 [2, 10] of 3.4 mg/L (≈ 6.76 µM) and an IC50 [3] greater than 50 mg/L. It also gave an IC50 [4, 11] of 0.3 mg/L (≈ 0.597 µM) and an IC50 [6, 12] greater than 30 mg/L.

Compound `CCCCC1CCC2(CCC(C)C(C/C=C(C)/C=C/C(O)C(C)/C=C/C(=O)O)O2)OC1/C=C/C(C)=C/COC(=O)CC` (stereo not drawn) [RM-A8a] has an IC50 ([1]; HL-60, 48 h) of 18 mg/L (≈ 30.7 µM), an IC50 [2, 7] of 18.5 mg/L (≈ 31.5 µM) and an IC50 [3] greater than 50 mg/L. The IC50 ([4]; 18 h) was greater than 50 mg/L and the IC50 [6, 8] was 22.3 mg/L (≈ 38 µM).
